Assay results taken from patent EP2379549B1, “7-AZAINDIRUBINS, 7'-AZAINDIRUBINS, 7-7'-DIAZAINDIRUBIN AND THE CORRESPONDING 3'-OXIME ETHER DERIVATES: PRODUCTION THEREOF, THEIR PRODUCTION AND USE AS A MEDICAMENT” (Eisenbrand, Gerhard, priority 2008, dated 2010).

Assays:
C6 glioblastoma cells = details: murine C6 glioblastoma cells; parent 5-methylindirubin; cited from earlier work
human cancer cell lines = assay: Antiproliferative activity against human cancer cell lines; type: cell-based

Row | SMILES | effectiveness for inhibition of cells versus parent compound (C6 glioblastoma cells) | antiproliferative activity as compared to the parent molecule, indirubin (human cancer cell lines)
1 | Cc1cc2c(cc1O)NC(=O)C2=C1Nc2ccccc2C1=O | as effective as the parent compound | –
2 | O=C1Nc2ccccc2C1=C1Nc2ncccc2C1=O [E843, 7'-Azaindirubin] | – | markedly augmented
